Each compound was assayed on Japanese white rabbits. Conditions: hydrolysate of base compound, 50% in purified water, 0.1 mL instilled, three male rabbits; observed 1, 6, 12 and 24 hr.
Description: Assuming that the base compound is hydrolyzed in the natural world, the biological reaction of hydrolysate was evaluated by eye irritancy. To be specific, the base compound (10 g) shown in Table 1 was added to 100 mL of water, and the mixture was adjusted to pH 10 with an aqueous sodium hydroxide solution. The mixture was placed in a flask, heated to 80° C., and stirred for 1 hr while adding an aqueous sodium hydroxide solution as appropriate every 10 min to maintain pH 10. The mixture was adjusted to pH 3.5 with an aqueous hydrochloric acid solution, and the mixture was washed 3 times with hexane to remove fatty acid. The solution was neutralized with an aqueous sodium hydroxide solution, evaporated and filtered to remove sodium chloride. The viscous liquid was diluted with purified water to a concentration of 50% and used as an eye irritancy measurement sample.
Using three male Japanese white rabbits per sample, the above-mentioned eye irritancy measurement sample (0.1 mL) was instilled into the unilateral intracapsular conjunctiva of each test animal, and the upper and lower eyelids were gently closed and maintained for about 1 sec. The other eye was used as control without treatment. After instillation, the cornea, iris, conjunctiva and the like were observed 1, 6, 12 and 24 hr later.

`CCCCCCCC(=O)OCC(COC(=O)CCCCCCC)OC(=O)CCCCCCC` [Ex. 1, Glycerol tricaprylic acid ester] was tested. Which “eye irritancy of hydrolysate” value did it give?
Its value is “no problem”.

How did the “eye irritancy of hydrolysate” value turn out when `CCCCCCCCC(=O)OCCO` [compound 4, ethylene glycol monopelargric acid ester, reference compound] was run?
Its value is “problematic”.

For `CCCCCCCCCCCC(=O)OCC(O)CO` (stereo not drawn) [Ex. 7, Glycerol monolauric acid ester], which “eye irritancy of hydrolysate” value is on record?
Its value is “no problem”.

From patent publication US20110045982A1, “HERBICIDAL COMPOSITION” (NOF CORPORATION, priority 2009, published 2011)
